Values quoted from earlier work in patent US9102697B2, “Trioxacarcins and uses thereof” (President and Fellows of Harvard College, priority 2010, dated 2015).

Tests used:
LXFL 529L = details: lung cancer cell line LXFL 529L; cited from earlier work
H-460 = details: lung cancer cell line H-460; cited from earlier work
MCF-7 = details: mammary cancer cell line MCF-7; cited from earlier work
SF-268 = details: CNS cancer cell line SF-268; cited from earlier work
murine models = details: cited from earlier work
gram-positive = details: cited from earlier work
[1] = tested on: self-complementary DNA 12-mer d(AATTACGTAATT) (SEQ ID NO: 1); details: epoxide opening by N7 of the central guanine residue; cited from earlier work

Row | Compound | IC70 (LXFL 529L) | IC70 (H-460) | IC70 (MCF-7) | IC70 (SF-268) | anti-tumor activity (murine models) | antibiotic activity (gram-positive) | reaction with the oligonucleotide [1]
1 | Trioxacarcin A | subnanmolar | subnanmolar | subnanmolar | subnanmolar | anti-tumor activity | gram-positive antibiotic activity | form a covalent complex
2 | COc1c2c(c(O)c3c4c(c(C)cc13)C1OC3(C(OC)OC)OC1C(O[C@H]1C[C@@H](O)[C@@](O)(C(C)=O)[C@H](C)O1)(O4)C3(O)CO)C(=O)C(O)CC2O[C@H]1C[C@@](C)(O)[C@H](OC(C)=O)[C@H](C)O1 (some centres unmarked) [Trioxacarcin B] | – | – | – | – | anti-tumor activity | gram-positive antibiotic activity | –
3 | COc1c2c(c(O)c3c4c(c(C)cc13)C1OC3(C(OC)OC)OC1C(OC1CC(O)C(O)(C(C)O)C(C)O1)(O4)C31CO1)C(=O)C(O)CC2OC1COC(C)(OC(C)=O)C(C)(O)C1 (centres unmarked) [Trioxacarcin C] | – | – | – | – | anti-tumor activity | gram-positive antibiotic activity | –
